Test results taken from publication PMC5869189 (Frontiers in Immunology, 2018).

Tested on: PBMC from healthy, seropositive donors
Format: cell-based, human

Row | Sequence | % Responders | Median SFC/10^6 PBMCs (IFN-g)
1 | RLGLRHARGVFQDGTAFSLP [BPSS0530_P7] | 90.7% | 211
2 | GALGGLLAFRSQTLDPAQAQ [BPSL0280_P29] | 93.1% | 463
3 | GAGIGALAGGGKGAAIGAGV [BPSL0999_P5] | 80.9% | 346
4 | APGGWRLERYECTPGTAHYA [BPSS1599_P28] | 87.5% | 163
5 | TEQPDGSLKLNVPSSVTFAT [BPSL0999_P10] | 93.6% | 382
6 | ASTSAQRVLSTGGGVADLIE [BPSS0530_P23] | 90.7% | 267
7 | ASPTWRAYRLNANLGGIAPP [BPSS1599_P39] | 87.5% | 143
8 | NQWTLEGVLYAK [BPSS1599_P43] | 81.3% | 120
9 | MSAQVIQIGRQRFVGGLFWQ [BPSS1599_P1] | 81.3% | 189
10 | SNHGWGFTLLDLDQDGLGLG [BPSS0530_P5] | 93.0% | 224
11 | ELVGLLGRLSVLPGVDEELA [BPSS0530_P28] | 88.4% | 260
12 | LASRYRAVSTEVPDLAVGLD [BPSS0530_P13] | 97.7% | 267
13 | APDRRVEVEVVGTQEVQKTT [BPSL2522_P21] | 100.0% | 273
14 | YLVSKGVPANKVYTEGKGKR [BPSL2522_P17] | 82.9% | 312
15 | DQYAITPAFTPLLNDLATTL [BPSL0999_P12] | 83.0% | 358
16 | FETVTEASFPGKWKIIYFYP [BPSL2096_P4] | 88.2% | 305
17 | TELAQAGDIACLALQAARTG [BPSS0530_P10] | 93.0% | 280
18 | WKSQLRSDEVALPIARVAGR [BPSS0530_P17] | 97.7% | 274
19 | AGAILGAVVTGVALVAAAFV [BPSS1532_P44] | 100.0% | 156
20 | AALPDALAFARACAMRFGRL [BPSS1599_P26] | 89.6% | 164
21 | HQASLRLGQTSNHGWGFTLL [BPSS0530_P4] | 83.7% | 239
22 | TQLLARLQWLDAAAKLERLL [BPSS1599_P35] | 93.8% | 145
23 | AVNDNWVNGTGEWVWMNGTN [BPSL2522_P4] | 91.4% | 368

Row | Sequence | % Responders | Median SFC/10^6 PBMCs (IFN-g)
24 | LLVVEPGATLDTDGERATLD [BPSS1599_P31] | 83.3% | 151
25 | RFIPPLLDTRAHLVLRSLID [BPSS0530_P20] | 90.7% | 248
26 | FAYWHHRAKVEAEEREAALE [BPSS1599_P22] | 95.8% | 169
27 | GGWNVVIGEPELERQGFQNF [BPSS1599_P15] | 87.5% | 179
28 | NANLGGIAPPEFVRAIDVPG [BPSS1599_P40] | 89.6% | 137
29 | GVALVAAAFVGASAVKAVAS [BPSS1532_P45] | 83.9% | 142
30 | EKLRQLLPQQTKLGAVEQIQ [BPSS0530_P37] | 83.7% | 222
31 | NVPSSVTFATDQYAITPAFT [BPSL0999_P11] | 95.7% | 399
32 | QGMGASNPIADNATEAGRAQ [BPSL0999_P19] | 97.9% | 375
33 | PLLNDLATTLNQNPQITASV [BPSL0999_P13] | 91.5% | 357
34 | GAAQMTAAIAGGALQATTSL [BPSS1531_P21] | 97.1% | 225
35 | LLLRQAIAEYRMRLANLDAF [BPSS0530_P25] | 81.4% | 244
36 | DAARATGLPGADKQGVFTPS [BPSS1525_P16] | 82.1% | 197
37 | TAACVVLGGAFAYWHHRAKV [BPSS1599_P21] | 100.0% | 170
38 | ECTPGTAHYAWARNGSNVRY [BPSS1599_P29] | 97.9% | 162
39 | AWAERFDRYLDDADALVASA [BPSL2504_P8] | 91.4% | 317
40 | IGSDKYNDRLSLRRAQAVKS [BPSL2522_P15] | 97.1% | 290
41 | GPEMAFGDVELASRYRAVST [BPSS0530_P12] | 97.7% | 308
42 | ITNYFTGLQTVANNAADPSA [BPSL0280_P12] | 82.8% | 557
43 | RDKEAGVALRATFIVDPDNT [BPSL2096_P13] | 94.1% | 315
44 | VRPAFIEALGDAARATGLPG [BPSS1525_P15] | 89.7% | 220
45 | DNATEAGRAQNRRVEIYLRA [BPSL0999_P20] | 93.6% | 353
46 | EAVELAKKLKFDLMVLRIDR [BPSS1599_P4] | 85.4% | 137

Row | Sequence | % Responders | Median SFC/10^6 PBMCs (IFN-g)
47 | RVRAELAARQARSGPVAPPW [BPSS1599_P24] | 87.5% | 119
48 | MSSLPVGPVAWSDGMLIETQ [BPSS0530_P1] | 93.0% | 258
49 | TKLGAVEQIQKLVDLQLPGA [BPSS0530_P38] | 90.7% | 305
50 | MLRQALARVIETPVLPLRFE [BPSS0530_P32] | 95.3% | 316
51 | GDWVGSREEALERLHTDYAW [BPSS1599_P13] | 95.8% | 182
52 | KLNHYSFGDVKGELIDQLGV [BPSL2096_P11] | 88.2% | 320
53 | REPKKQDICYATQNRQDAVK [BPSL0919_P21] | 94.6% | 422
54 | SAQSVPASRQAVNDNWVNGT [BPSL2522_P3] | 88.6% | 267
55 | RDGFAPGHLSLGAMVSRAIA [BPSS1599_P7] | 95.8% | 132
56 | LQTSFEPLAMMLRQALARVI [BPSS0530_P31] | 97.7% | 240
57 | QRFVGGLFWQSLSRRNELRA [BPSS1599_P2] | 81.3% | 137
58 | AWRREHKDLDKLNHYSFGDV [BPSL2096_P10] | 88.2% | 351
59 | LGAMVSRAIALEGAFYNGRR [BPSS1599_P8] | 89.6% | 99
60 | SQVANDNAVAAQVAGNLRT [BPSS1531_P41] | 80.0% | 197
61 | RMRLANLDAFDPLPPAMLYH [BPSS0530_P26] | 88.4% | 240
62 | HFQQLERHLAHQASLRLGQT [BPSS0530_P3] | 83.7% | 253
63 | RLNALPNPPRQIPYYAQSTY [BPSS0530_P40] | 81.4% | 219
64 | FEVESTDPFWKQTLAGSAMA [BPSS0530_P42] | 83.7% | 237
65 | AVRDHAFMPNGDWVGSREEA [BPSS1599_P12] | 97.9% | 178
66 | AIFSEAKDRFCMDPATRAGN [BPSS1525_P13] | 92.3% | 200
67 | CLALQAARTGGPEMAFGDVE [BPSS0530_P11] | 97.7% | 256
68 | GGERMSDEHASVLAQEAPAR [BPSS1531_P30] | 91.4% | 213
69 | GRQVYEATLCAIFSEAKDRF [BPSS1525_P12] | 84.6% | 201
